Measured values published in patent US20210270843A1, “Immune Monitoring of Neuro-Inflammatory Amyotrophic Lateral Sclerosis (ALS)” (RAPA THERAPEUTICS, LLC, priority 2018, published 2021).
Values joined by “and” are separate entries in the source; they are usually repeats but may differ in a detail not shown here. Equal entries are not always repeated.

B1: rhu CD40L: recombinant human (rhu) CD40L molecule (protein, UniProt P29965 113-261, looked up)
CD40 ligand, soluble form: MQKGDQNPQIAAHVISEASSKTTSVLQWAEKGYYTMSNNLVTLENGKQLTVKRQGLYYIYAQVTFCSNREASSQAPFIASLCLKSPGRFERILLRAANTHSSAKPCGQQSIHLGGVFELQPGASVFVNVTDPSQVSHGTGFTSFGLLKL

Legend:
[1] = test system: T cell receptor repertoire; assay: RNA-based T cell receptor repertoire sequencing of ALS patient PBMC pre- and post-etanercept therapy
[2] = test system: peripheral blood mononuclear cells from ALS patient; assay: Autonomous cytokine secretion of ALS patient PBMC before and during etanercept therapy; format: in vivo, human; conditions: etanercept 50 mg per week s.c., PBMC incubated 24 hr without stimulation, similar on three values over three months
Description: We have observed that ALS patients can manifest autonomous inflammatory cytokine secretion when incubation of T cell- and monocyte-containing inoculum occurs for 24 hours in X-Vivo 20 media supplemented only with 5% human serum (FIG. 3). FIG. 3 depicts ALS patient and normal control autonomous cytokine secretion. ALS patient (“ALS”) and normal control (“NC”) peripheral blood mononuclear cells were either not separated (FIG. 3, right panel; mixture of T cells and monocytes), or separated into CD14^+ monocyte cells (FIG. 3, left panel) or CD3^+ T cells (FIG. 3, middle panel). The cells were incubated for 24 hours in media without any stimulation additives. After 24 hours, the supernatant was harvested and tested for cytokine content; TNF-α content is shown, with result described as pg per ml per 1×10^6 cells per 24 hours. […]
We reasoned that detection of autonomous secretion of inflammatory cytokines will have potential clinical implications, for example, in the monitoring of ALS disease response to investigational therapy. Towards this aim, we evaluated cytokine secretion in an ALS patient prior to and then after experimental therapy with the anti-TNF-α soluble recombinant receptor, etancercept (Enbrel®); there have been no reports of clinical trials evaluating etanercept therapy of ALS. […]

[3] = test system: PBMC; assay: CD40 ligand-driven cytokine secretion of PBMC (24 h culture, multiplex assay); format: cell-based; conditions: X-Vivo 20 media with 5% human serum
Text: Given this possibility, we evaluated whether simple addition of the recombinant human (rhu) CD40L molecule might uncover autonomous inflammatory cytokine secretion in ALS patients. There are no reports in the literature to date pertaining to CD40L-stimulation of ALS patient PBMC. […] Therefore, the detection of the inflammatory subset of ALS can be expanded by inclusion of patients that secrete cytokines autonomously and those patients that secrete inflammatory cytokines after CD40L stimulation. Patient hypersensitivity to CD40 ligand is driven by an imbalance in the post-CD40 receptor signaling pathway, with increased TRAF6 contribution to the signaling cascade during neuro-inflammation; importantly, the TRAF2 and TRAF3 family members inhibit post-CD40 signaling. As such, given this information, our monitoring method will also include Western Blot analyses for the detection of ALS patient balance of the TRAF family of proteins.
In FIG. 6, a sibling of a subject who was a carrier for the C9orf72 mutation was evaluated for autonomous cytokine secretion. […] This illustrates the importance of both neurologic and immunologic risk factors. […]

[4] = individual clones, post- versus pre-etanercept

Molecule	TCR clonality, Diversity Index (CHAOE) after therapy ([1]; ALS patient post-therapy, pre-therapy sample approximately 650,000, normal controls ~300,000)	reduction in TCR clonality in post-therapy sample ([1]; ALS patient, post- versus pre-therapy)	T cell clonal contraction [1, 4]	T cell clonal expansion [1, 4]	post-treatment frequency of contracted T cell clones ([1]; several clones, pre-etanercept frequencies 259 to 598)	autonomous secretion of IL-6 [2]	autonomous secretion of TNF-α [2]	inflammatory cytokine production ([3]; PBMC from an ALS patient)	cytokine secretion after stimulation with CD40L ([3]; PBMC from sibling of a C9orf72 mutation carrier)
etanercept	approximately 599,000	~10%	more than 4 log and ~4 log	more than 4 log and ~4 log	0.01	reduced	reduced		
B1								can induce inflammatory cytokine production	high levels of cytokine secretion
